Results taken from ChEMBL document CHEMBL4308841, “Synthesis, in vitro antiproliferative activity, and kinase inhibitory effects of pyrazole-containing diarylureas and diarylamides” (Eur J Med Chem, 2018).

test system: HL-60(TB); experiment: Growth inhibition of human HL-60(TB) cells incubated for 48 hrs by sulforhodamine B assay; format: functional, cell-based; conditions: HL-60, 48 h, read-out: GI50

SMILES | GI50 [µM]
COc1cc(Cl)cc(-c2nn(-c3cccc(NC(=O)Nc4cccc(C(F)(F)F)c4)c3)cc2-c2ccncc2)c1 | 1.91

same assay, conditions: HL-60, 48 h, read-out: LC50

SMILES | LC50 [µM]
COc1cc(Cl)cc(-c2nn(-c3cccc(NC(=O)Nc4cccc(C(F)(F)F)c4)c3)cc2-c2ccncc2)c1 | > 100

same assay, conditions: HL-60, 48 h, read-out: TGI

SMILES | TGI [µM]
COc1cc(Cl)cc(-c2nn(-c3cccc(NC(=O)Nc4cccc(C(F)(F)F)c4)c3)cc2-c2ccncc2)c1 | 55.1

same assay, conditions: HL-60, 48 h, read-out: pGI50 (converted)

SMILES | GI50 [µM]
COc1cc(Cl)cc(-c2nn(-c3cccc(NC(=O)Nc4cccc(C(F)(F)F)c4)c3)cc2-c2ccncc2)c1 | 1.91

same assay, conditions: HL-60, 48 h, read-out: pLC50 (converted)

SMILES | LC50 [µM]
COc1cc(Cl)cc(-c2nn(-c3cccc(NC(=O)Nc4cccc(C(F)(F)F)c4)c3)cc2-c2ccncc2)c1 | > 100

same assay, conditions: HL-60, 48 h, read-out: pTGI (converted)

SMILES | TGI [µM]
COc1cc(Cl)cc(-c2nn(-c3cccc(NC(=O)Nc4cccc(C(F)(F)F)c4)c3)cc2-c2ccncc2)c1 | 5.5

test system: SR; experiment: Growth inhibition of human SR cells incubated for 48 hrs by sulforhodamine B assay; format: functional, cell-based; conditions: read-out: GI50

SMILES | GI50 [µM]
COc1cc(Cl)cc(-c2nn(-c3cccc(NC(=O)Nc4cccc(C(F)(F)F)c4)c3)cc2-c2ccncc2)c1 | 1.14

same assay, conditions: read-out: LC50 (the source's name)

SMILES | CC50 [µM]
COc1cc(Cl)cc(-c2nn(-c3cccc(NC(=O)Nc4cccc(C(F)(F)F)c4)c3)cc2-c2ccncc2)c1 | > 100

same assay, conditions: read-out: TGI

SMILES | TGI [µM]
COc1cc(Cl)cc(-c2nn(-c3cccc(NC(=O)Nc4cccc(C(F)(F)F)c4)c3)cc2-c2ccncc2)c1 | 43.9

same assay, conditions: read-out: pGI50 (converted)

SMILES | GI50 [µM]
COc1cc(Cl)cc(-c2nn(-c3cccc(NC(=O)Nc4cccc(C(F)(F)F)c4)c3)cc2-c2ccncc2)c1 | 1.15

same assay, conditions: read-out: pLC50 (the source's name) (converted)

SMILES | CC50 [µM]
COc1cc(Cl)cc(-c2nn(-c3cccc(NC(=O)Nc4cccc(C(F)(F)F)c4)c3)cc2-c2ccncc2)c1 | > 100

same assay, conditions: read-out: pTGI (converted)

SMILES | TGI [µM]
COc1cc(Cl)cc(-c2nn(-c3cccc(NC(=O)Nc4cccc(C(F)(F)F)c4)c3)cc2-c2ccncc2)c1 | 4.37

test system: LOX IMVI; experiment: Growth inhibition of human LOXIMVI cells incubated for 48 hrs by sulforhodamine B assay; format: functional; conditions: read-out: GI50

SMILES | GI50 [µM]
COc1cc(Cl)cc(-c2nn(-c3cccc(NC(=O)Nc4cccc(C(F)(F)F)c4)c3)cc2-c2ccncc2)c1 | 1.51

same assay, conditions: read-out: LC50 (the source's name)

SMILES | CC50 [µM]
COc1cc(Cl)cc(-c2nn(-c3cccc(NC(=O)Nc4cccc(C(F)(F)F)c4)c3)cc2-c2ccncc2)c1 | 82.8

same assay, conditions: read-out: TGI

SMILES | TGI [µM]
COc1cc(Cl)cc(-c2nn(-c3cccc(NC(=O)Nc4cccc(C(F)(F)F)c4)c3)cc2-c2ccncc2)c1 | 70.4

same assay, conditions: read-out: pGI50 (converted)

SMILES | GI50 [µM]
COc1cc(Cl)cc(-c2nn(-c3cccc(NC(=O)Nc4cccc(C(F)(F)F)c4)c3)cc2-c2ccncc2)c1 | 1.82

same assay, conditions: read-out: pLC50 (the source's name) (converted)

SMILES | CC50 [µM]
COc1cc(Cl)cc(-c2nn(-c3cccc(NC(=O)Nc4cccc(C(F)(F)F)c4)c3)cc2-c2ccncc2)c1 | 83.2

same assay, conditions: read-out: pTGI (converted)

SMILES | TGI [µM]
COc1cc(Cl)cc(-c2nn(-c3cccc(NC(=O)Nc4cccc(C(F)(F)F)c4)c3)cc2-c2ccncc2)c1 | 7.08

test system: M14; experiment: Growth inhibition of human M14 cells incubated for 48 hrs by sulforhodamine B assay; format: functional, cell-based; conditions: M14, 48 h, read-out: GI50

SMILES | GI50 [µM]
COc1cc(Cl)cc(-c2nn(-c3cccc(NC(=O)Nc4cccc(C(F)(F)F)c4)c3)cc2-c2ccncc2)c1 | 1.34

same assay, conditions: M14, 48 h, read-out: LC50 (the source's name)

SMILES | CC50 [µM]
COc1cc(Cl)cc(-c2nn(-c3cccc(NC(=O)Nc4cccc(C(F)(F)F)c4)c3)cc2-c2ccncc2)c1 | 15.3

same assay, conditions: M14, 48 h, read-out: TGI

SMILES | TGI [µM]
COc1cc(Cl)cc(-c2nn(-c3cccc(NC(=O)Nc4cccc(C(F)(F)F)c4)c3)cc2-c2ccncc2)c1 | 30.5

same assay, conditions: M14, 48 h, read-out: pGI50 (converted)

SMILES | GI50 [µM]
COc1cc(Cl)cc(-c2nn(-c3cccc(NC(=O)Nc4cccc(C(F)(F)F)c4)c3)cc2-c2ccncc2)c1 | 1.35

same assay, conditions: M14, 48 h, read-out: pLC50 (the source's name) (converted)

SMILES | CC50 [µM]
COc1cc(Cl)cc(-c2nn(-c3cccc(NC(=O)Nc4cccc(C(F)(F)F)c4)c3)cc2-c2ccncc2)c1 | 16.2

same assay, conditions: M14, 48 h, read-out: pTGI (converted)

SMILES | TGI [µM]
COc1cc(Cl)cc(-c2nn(-c3cccc(NC(=O)Nc4cccc(C(F)(F)F)c4)c3)cc2-c2ccncc2)c1 | 3.98

test system: SK-MEL-5; experiment: Growth inhibition of human SK-MEL-5 cells incubated for 48 hrs by sulforhodamine B assay; format: functional, cell-based; conditions: SK-MEL-5, 48 h, read-out: GI50

SMILES | GI50 [µM]
COc1cc(Cl)cc(-c2nn(-c3cccc(NC(=O)Nc4cccc(C(F)(F)F)c4)c3)cc2-c2ccncc2)c1 | 1.43

same assay, conditions: SK-MEL-5, 48 h, read-out: LC50 (the source's name)

SMILES | CC50 [µM]
COc1cc(Cl)cc(-c2nn(-c3cccc(NC(=O)Nc4cccc(C(F)(F)F)c4)c3)cc2-c2ccncc2)c1 | 54.5

same assay, conditions: SK-MEL-5, 48 h, read-out: TGI

SMILES | TGI [µM]
COc1cc(Cl)cc(-c2nn(-c3cccc(NC(=O)Nc4cccc(C(F)(F)F)c4)c3)cc2-c2ccncc2)c1 | 25.4

same assay, conditions: SK-MEL-5, 48 h, read-out: pGI50 (converted)

SMILES | GI50 [µM]
COc1cc(Cl)cc(-c2nn(-c3cccc(NC(=O)Nc4cccc(C(F)(F)F)c4)c3)cc2-c2ccncc2)c1 | 1.48

same assay, conditions: SK-MEL-5, 48 h, read-out: pLC50 (the source's name) (converted)

SMILES | CC50 [µM]
COc1cc(Cl)cc(-c2nn(-c3cccc(NC(=O)Nc4cccc(C(F)(F)F)c4)c3)cc2-c2ccncc2)c1 | 5.5

same assay, conditions: SK-MEL-5, 48 h, read-out: pTGI (converted)

SMILES | TGI [µM]
COc1cc(Cl)cc(-c2nn(-c3cccc(NC(=O)Nc4cccc(C(F)(F)F)c4)c3)cc2-c2ccncc2)c1 | 2.82

test system: IGROV-1; experiment: Growth inhibition of human IGROV1 cells incubated for 48 hrs by sulforhodamine B assay; format: functional, cell-based; conditions: IGROV-1, 48 h, read-out: GI50

SMILES | GI50 [µM]
COc1cc(Cl)cc(-c2nn(-c3cccc(NC(=O)Nc4cccc(C(F)(F)F)c4)c3)cc2-c2ccncc2)c1 | 2.56

same assay, conditions: IGROV-1, 48 h, read-out: LC50 (the source's name)

SMILES | CC50 [µM]
COc1cc(Cl)cc(-c2nn(-c3cccc(NC(=O)Nc4cccc(C(F)(F)F)c4)c3)cc2-c2ccncc2)c1 | > 100

same assay, conditions: IGROV-1, 48 h, read-out: TGI

SMILES | TGI [µM]
COc1cc(Cl)cc(-c2nn(-c3cccc(NC(=O)Nc4cccc(C(F)(F)F)c4)c3)cc2-c2ccncc2)c1 | 22.7

same assay, conditions: IGROV-1, 48 h, read-out: pGI50 (converted)

SMILES | GI50 [µM]
COc1cc(Cl)cc(-c2nn(-c3cccc(NC(=O)Nc4cccc(C(F)(F)F)c4)c3)cc2-c2ccncc2)c1 | 2.88
